Source: patent US20240101538A1, “PROTEIN-PROTEIN INTERACTION MODULATORS OF AURORA KINASE A AND THEIR USE IN THE PREVENTION AND/OR TREATMENT OF CANCER” (EBERHARD KARLS UNIVERSITÄT TÜBINGEN, priority 2020, published 2024)
Read-outs that look alike come from different tables or passages of the source.

Assays:
NMCdkn2a^ARF−/− cells = test: Colony formation assay on NMCdkn2a^ARF−/− cells; assay type: cell-based, murine; details: 5 days, read-out: EC (NMCdkn2a^ARF−/−)
Text: (§1) To evaluate the effect of small molecules equipped with R-spine interacting moieties, the inventors screened a focused library of proprietary p38a MAP-Kinase inhibitors which were equipped with R-spine interacting pharmacophores. To this end, the inventors utilized a screening system as developed in Dauch et al.^2 The screening system is based on colony formation assays of cell lines isolated from Nras-driven, Trp53-deficient murine HCCs, whose development is dependent on MYC (NMP53^−/− cells), as well as Nras-driven, Cdkn2a^ARF-deficient murine HCCs, which develop independently of MYC (NMCdkn2a^ARF−/− cells). Importantly, NMP53^−/− cells are sensitive to AURKA inhibitors, which induce a conformational shift in AURKA, whereas NMCdkn2a^ARF−/− are not sensitive to such compounds.
(§2) For Colony Formation Assays, cells were seeded at a density of 50 000 cells per 6 well and next day treated with a 2-fold dilution series of the indicated compounds or the highest corresponding DMSO concentration as control. After 5 days, the cells were fixed with a 10% formaldehyde solution for 30 min, washed once with water, stained with a 0.5% crystal violet solution for 30 min and washed twice with water. The compounds effective concentration (EC) was determined according to the lowest concentration in the dilution series, that inhibited cell growth substantially. The resulting benzamide containing hit structure 1, with a twofold selectivity towards NMP53^−/− cells (effective concentration on NMP53^−/− cells (EC): 2 μM, EC on Cdkn2a^ARF−/−: 4 μM, FIG. 1), served as the inventors' starting point for further compound development.

NMP53^−/− cells = test: Colony formation assay on NMP53^−/− cells; assay type: cell-based, murine; details: colony formation assay; for minimal effective concentration: 5 days, read-out: EC (NMP53^−/−); for selectivity for NMP53^−/− cells: NMP53^−/− versus NMCdkn2a^ARF−/− cells
Text: as §1, §2

AURKA = AURKA (Homo sapiens (Human), UniProt O14965); test: Radioisotope filter binding assay (HotSpotSM; ReactionBiology) for AURKA kinase inhibition; assay type: biochemical
Chain of AURKA (O14965 whole entry): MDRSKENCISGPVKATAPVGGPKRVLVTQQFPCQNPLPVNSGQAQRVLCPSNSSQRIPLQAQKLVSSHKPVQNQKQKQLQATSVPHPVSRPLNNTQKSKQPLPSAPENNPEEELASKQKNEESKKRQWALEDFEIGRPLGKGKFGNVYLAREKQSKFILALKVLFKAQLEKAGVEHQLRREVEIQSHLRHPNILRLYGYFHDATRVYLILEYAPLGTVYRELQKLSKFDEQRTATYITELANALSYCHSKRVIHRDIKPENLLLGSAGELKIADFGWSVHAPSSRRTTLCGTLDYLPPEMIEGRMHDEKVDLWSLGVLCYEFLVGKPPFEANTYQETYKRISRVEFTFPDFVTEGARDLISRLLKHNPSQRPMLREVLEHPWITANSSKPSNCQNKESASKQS
Text: Table 2 summarizes the EC values of different compounds of this invention determined by colony formation assays on NMP53^−/− and NMCdkn2a^ARF−/− cells, as well as the corresponding IC50 values for the kinase inhibition of AURKA, determined by radioisotope filter binding assay (HotSpotSM; ReactionBiology). Most compounds further show a strong selectivity for NMP53^−/− cells, which is indicated by a lower EC concentration of a particular compound required for inhibiting cell growth of NMP53^−/− cells compared to NMCdkn2a^ARF−/− cells.

MYC-AURKA interaction = MYC-AURKA interaction (Mus musculus (Mouse), UniProt P97477); test: Proximity ligation assay (PLA) for MYC and AURKA in NMP53^−/− cells; assay type: cell-based, murine; details: 24 h after treatment
Chain of MYC-AURKA interaction (P97477 whole entry): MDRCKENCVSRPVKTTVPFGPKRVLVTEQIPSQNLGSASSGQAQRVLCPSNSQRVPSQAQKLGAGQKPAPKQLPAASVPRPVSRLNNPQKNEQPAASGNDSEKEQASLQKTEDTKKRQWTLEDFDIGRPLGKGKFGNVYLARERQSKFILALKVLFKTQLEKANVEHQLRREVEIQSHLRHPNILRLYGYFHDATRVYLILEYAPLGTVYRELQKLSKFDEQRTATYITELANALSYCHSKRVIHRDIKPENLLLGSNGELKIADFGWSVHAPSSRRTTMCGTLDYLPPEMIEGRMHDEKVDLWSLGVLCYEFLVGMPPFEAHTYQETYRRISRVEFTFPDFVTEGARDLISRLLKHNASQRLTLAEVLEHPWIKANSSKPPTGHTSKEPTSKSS
Procedure: To examine whether this MYC degradation is associated with MYC-AURKA PPI disruption, the inventors performed proximity ligation assays (PLA) in NMP53^−/− cells. For Proximity Ligation Assay (PLA), 50 000 cells were seeded on 12 mm glass slides placed in 6 well plates. On the next day, the cells were treated with the indicated compounds or the corresponding DMSO concentration for 2 h (compound 2c [N-(5-((4-(1H-pyrazole-4-yl)benzyl)amino)-2-fluorophenyl)-3-(furan-2-yl)propanamide] and compound 3a [N-(2-fluoro-5-((4-(1-methyl-1H-pyrazole-4-yl)benzyl)amino)phenyl)-3-(furan-2-yl)propanamide]) or 24 h (alisertib) and fixed for 10 min in 100% MeOH at −20° C. The glass slides were removed from the 6 well plates and the cells permeabilized with TBS+0.3% Triton X-100 for 5 min. After washing with PBS and blocking with 5% BSA in TBS+0.05% Tween for 30 min, the slides were incubated with MYC (Abeam ab32072, 1:200) and AURKA (Abcam ab13824, 1:200) specific antibodies in 1% BSA in TBS+0.05% Tween for 120 min at RT and washed 3 times with PBS for 5 min, wherein the MYC/TPX2 and AURKA specific antibodies are derived from a different species. After a 20 min pre-incubation of two PLA probes, directed against either species of the MYC/TPX2 and AURKA specific antibodies, at RT (DUO92001 and DUO92005 Sigma Aldrich, diluted 1:10 in 1% BSA in TBS+0.05% Tween), the slides were incubated with the probes for 60 min at 37° C. in a humidified chamber. The slides were washed 3 times with 1× wash buffer A (Sigma Aldrich DUO82049) for 5 min and incubated with the ligase solution (ligase diluted 1:40 in 5× ligase buffer and ddH2O, Sigma Aldrich DUO92008) for 60 min at 37° C. in a humidified chamber. […] The foci per cell were counted in a way that the cytoplasmic foci are counted to the cell with the closest nucleus (DAPI). Significance was calculated with the GraphPad Prism 8.4.0 software (GraphPad Software, La Jolla, CA) by using the nonparametric Mann Whitney test.

late stage HCC = details: patients with late stage HCC, on average; cited from earlier work
[1] = Mus musculus, 120 h, lowest concentration of 2-fold dilution series that inhibited cell growth substantially

SMILES	IC50 (AURKA) [µM]	minimal effective concentration (NMCdkn2a^ARF−/− cells; Mus musculus, 120 h) [µM]	minimal effective concentration (NMP53^−/− cells; Mus musculus, 120 h) [µM]	also measured
Cn1cc(-c2ccc(CNc3ccc(F)c(NC(=O)CCc4ccccc4)c3)cc2)cn1 [Compound 97, N-(2-fluoro-5-((4-(1-methyl-1H-pyrazol-4-yl)benzyl)amino)phenyl)-3-phenylpropanamide]	0.532	1	0.25	
O=C(CCc1ccccc1)Nc1cc(NCc2ccc(-c3cn[nH]c3)cc2)ccc1F [Compound 95b, N-(5-((4-(1H-Pyrazol-4-yl)benzyl)amino)-2-fluorophenyl)-3-phenylpropanamide]	0.0079	2		minimal effective concentration (NMP53^−/− cells): 0.5 µM
COc1cc(Nc2ncc3c(n2)-c2ccc(Cl)cc2C(c2c(F)cccc2OC)=NC3)ccc1C(=O)O [alisertib, reference compound]				reduction of the MYC-AURKA interaction compared to DMSO (MYC-AURKA interaction): 60%
O=C(Cc1ccccc1)Nc1cc(NCc2cc(-c3cc4cccnc4[nH]3)ccn2)ccc1F [Compound 18c, N-(5-(((4-(1H-Pyrrolo[2,3-b]pyridin-2-yl)pyridin-2-yl)methyl)amino)-2-fluorophenyl)-2-phenylacetamide]	> 10	0.5	0.25	
O=C(CCc1ccccc1)Nc1cc(NCc2ccc(-c3cn[nH]c3)cc2)ccc1F [Compound 2a, N-(5-((4-(1H-pyrazole-4-yl)benzyl)amino)-2-fluorophenyl)-3-phenylpropanamide]	6.9			minimal effective concentration (NMCdkn2a^ARF−/− cells): >4 µM; minimal effective concentration (NMCdkn2a^ARF−/− cells; [1]): 2 µM; minimal effective concentration (NMP53^−/− cells; [1]): 0.5 µM; selectivity for NMP53^−/− cells (NMP53^−/− cells): 4 fold; minimal effective concentration (NMP53^−/− cells): >4 µM
Cn1ncc(-c2ccc(CNc3ccc(F)c(NC(=O)CCc4ccco4)c3)cc2)c1N [Compound 146, N-(5-((4-(5-Amino-1-methyl-1H-pyrazol-4-yl)benzyl)amino)-2-fluorophenyl)-3-(furan-2-yl)propanamide]		> 1	0.125	
CC(=O)n1cc(-c2ccc(CNc3ccc(F)c(NC(=O)CCc4ccco4)c3)cc2)cn1 [Compound 164, N-(5-((4-(1-Acetyl-1H-pyrazol-4-yl)benzyl)amino)-2-fluorophenyl)-3-(furan-2-yl)propanamide]		> 1	0.125	
Cn1cc(-c2ccc(CNc3ccc(F)c(NC(=O)CCc4ccco4)c3)cc2F)cn1 [Compound 128a, N-(2-fluoro-5-((3-fluoro-4-(1-methyl-1H-pyrazol-4-yl)benzyl)amino)phenyl)-3-(furan-2-yl)propanamide]		0.125 to 0.25	0.032	
Cc1ccc(CCC(=O)Nc2cc(NCc3ccc(-c4cnn(C)c4)cc3)ccc2F)o1 [Compound 107h, N-(2-fluoro-5-((4-(1-methyl-1H-pyrazol-4-yl)benzyl)amino)phenyl)-3-(5-methylfuran-2-yl)propanamide]		1	0.125	
COc1cc(-c2cn[nH]c2)ccc1CNc1ccc(F)c(NC(=O)CCc2ccco2)c1 [Compound 127d, N-(2-fluoro-5-((2-methoxy-4-(1H-pyrazol-4-yl)benzyl)amino)phenyl)-3-(furan-2-yl)propanamide]		2	0.25	
CCn1cc(-c2ccc(CNc3ccc(F)c(NC(=O)CCc4ccco4)c3)cc2)cn1 [Compound 3b, N-(5-((4-(1-ethyl-1H-pyrazole-4-yl)benzyl)amino)-2-fluorophenyl)-3-(furan-2-yl)propanamide]		0.25	0.125	minimal effective concentration (NMCdkn2a^ARF−/− cells; [1]): 0.25 µM; minimal effective concentration (NMP53^−/− cells; [1]): 0.125 µM; selectivity for NMP53^−/− cells (NMP53^−/− cells): loss of selectivity
CNC(=O)c1cc(Oc2ccc(NC(=O)Nc3ccc(Cl)c(C(F)(F)F)c3)cc2)ccn1 [sorafenib]				prolonged survival (late stage HCC): 2.8 months

The next lines start with results.

IC50 (AURKA) [µM]	SMILES	minimal effective concentration (NMCdkn2a^ARF−/− cells; Mus musculus, 120 h) [µM]	minimal effective concentration (NMP53^−/− cells; Mus musculus, 120 h) [µM]	also measured
> 10	Cn1cc(-c2ccc(CNc3ccc(F)c(NC(=O)CCc4cccs4)c3)cc2)cn1 [Compound 107o, N-(2-fluoro-5-((4-(1-methyl-1H-pyrazol-4-yl)benzyl)amino)phenyl)-3-(thiophen-2-yl)propanamide]	1	0.125	
> 10	Cn1cc(-c2ccc(CNc3ccc(F)c(NC(=O)C=Cc4ccccc4)c3)cc2)cn1 [Compound 107s, N-(2-fluoro-5-((4-(1-methyl-1H-pyrazol-4-yl)benzyl)amino)phenyl)cinnamamide]	> 1	0.5	
> 10	Cn1cc(-c2ccc(CNc3ccc(F)c(NC(=O)/C=C/c4ccco4)c3)cc2)cn1 [Compound 107r, (E)-N-(2-fluoro-5-((4-(1-methyl-1H-pyrazol-4-yl)benzyl)amino)phenyl)-3-(furan-2-yl)acrylamide]	> 0.25	0.062	
> 10	Cn1cc(-c2ccc(CNc3ccc(F)c(NC(=O)CCc4ccoc4)c3)cc2)cn1 [Compound 107n, N-(2-fluoro-5-((4-(1-methyl-1H-pyrazol-4-yl)benzyl)amino)phenyl)-3-(furan-3-yl)propanamide]	> 0.25	0.062	
> 10	Cn1cc(-c2ccc(CNc3ccc(F)c(NC(=O)CCc4ccsc4)c3)cc2)cn1 [Compound 107p, N-(2-fluoro-5-((4-(1-methyl-1H-pyrazol-4-yl)benzyl)amino)phenyl)-3-(thiophen-3-yl)propanamide]	> 0.25	0.062	
